# Reference: US20180289713A1, “COMPOUNDS FOR TREATING AMYOTROPHIC LATERAL SCLEROSIS” (Hoffmann-La Roche Inc., priority 2015, published 2018)
# Key:
# [1] = system: full length SMN2 minigene mRNA (HEK293H cell line stably transfected with SMN2-A minigene); test: SMN2 minigene mRNA splicing RT-qPCR assay in cultured cells; format: cell-based; settings: HEK293-H, concentration raising full length SMN2 minigene mRNA 1.5-fold vs vehicle, 24 hours, 7-point curve, read-out: EC1.5x minigene
# Excerpt: The term “EC1.5× concentration for production of full length SMN2 minigene mRNA” (or “EC1.5× minigene”) is defined as that concentration of test compound that is effective in increasing the amount of full length SMN2 minigene mRNA to a level 1.5-fold greater relative to that in vehicle-treated cells.
# The reverse transcription-quantitative PCR-based (RT-qPCR) assay is used to quantify the level of the full length SMN2 minigene (referred to herein by the term “FL SMN2mini”) mRNA containing SMN2 exon 7 in a HEK293H cell line stably transfected with said minigene and treated with a test compound. Materials used and respective sources are listed below in Table 1.
# The SMN2-A minigene construct was prepared as described in International Patent Application WO2009/151546A1 page 145 paragraph [00400] to page 147 paragraph [00412](incl. FIG. 1 and FIG. 3 therein).
# HEK293H cells stably transfected with the SMN2-A minigene construct (10,000 cells/well) are seeded in 200 μL of cell culture medium (DMEM plus 10% FBS, with 200 μg/mL hygromycin) in 96-well flat-bottom plates and the plate is immediately swirled to ensure proper dispersal of cells and the formation of an even monolayer of cells. Cells are allowed to attach for 6 hours. Test compounds are serially diluted 3.16-fold in 100% DMSO to generate a 7-point concentration curve. […]
# Full length SMN2-A minigene and GAPDH mRNA are quantified using the primers and probes referenced in WO2014/209841A2 on page 80 in Table 1. […]
# The increase in the abundance of the FL SMN2mini mRNA relative to that in cells treated with vehicle control is determined from real-time PCR data using a modified […] method (as described in Livak and Schmittgen, Methods, 2001, 25:402-8). The amplification efficiency E is calculated from the slope of the amplification curve for FL SMN2mini and GAPDH individually. The abundance of FL SMN2mini and GAPDH mRNA are then calculated as (1+E)^−Ct, where Ct is the threshold value for each amplicon. […]
# patients with ALS = settings: cited from earlier work
# [2] = system: SMN levels in SOD1-ALS iPS cell and TDP43-47A iPS cell line; settings: dose dependent; SOD1-ALS and TDP43-47A iPSC-derived ALS models; cited from earlier work
SMILES,EC (1.5-fold) [1] [µM],further results
"Cc1cn2nc(-c3cc(=O)n4cc(N5CCNC6(CC6)C5)ccc4n3)ccc2n1 [Example 19, 7-(4,7-diazaspiro[2.5]octan-7-yl)-2-(2-methylimidazo[1,2-b]pyridazin-6-yl)pyrido[1,2-a]pyrimidin-4-one]",0.0102,
"Cc1cn2nc(-c3cc(=O)n4cc(N5C[C@@H](C)N[C@@H](C)C5)cc(C)c4n3)cc(C)c2n1 [Example 26, 2-(2,8-dimethylimidazo[1,2-b]pyridazin-6-yl)-7-[(3R,5S)-3,5-dimethylpiperazin-1-yl]-9-methyl-pyrido[1,2-a]pyrimidin-4-one]",0.327,
"Cc1cn2nc(-c3cc(=O)n4cc(N5CCNC(C)(C)C5)cc(C)c4n3)cc(C)c2n1 [Example 27, 2-(2,8-dimethylimidazo[1,2-b]pyridazin-6-yl)-7-(3,3-dimethylpiperazin-1-yl)-9-methyl-pyrido[1,2-a]pyrimidin-4-one]",0.0399,
Nc1nc2ccc(OC(F)(F)F)cc2s1 [Riluzole],,"improvement of muscular strength (patients with ALS; ALS patients, some reports): does not appear to provide any improvement of muscular strength; extension of life (patients with ALS; at least some patients with ALS): three"
CCN1CCC(c2cc(C)c3nc(-c4cc5c(C)nc(C)cn5n4)cc(=O)n3c2)CC1 [SMN-C3],,increase of SMN levels [2]: up to 1.4 fold
